The subject of series [1] is Blumeria graminis f. sp. tritici (Erysiphe graminis f. sp. tritici). Kind of series: Blumeria graminis f. sp. tritici / wheat / leaf disc preventative (powdery mildew on wheat). It counts as in vivo. The settings on record: foliar, wheat leaf segments cv. Kanzler, compared to untreated control leaf disks, read-out: disease control. The text has this: Blumeria graminis f. sp. tritici (Erysiphe graminis f. sp. tritici)/Wheat/Leaf Disc Preventative (Powdery Mildew on Wheat) Wheat leaf segments cv. Kanzler were placed on agar in a multiwell plate (24-well format) and sprayed with the formulated test compound diluted in water. The leaf disks were inoculated by shaking powdery mildew infected plants above the test plates 1 day after application.

For another series, the system named is Phakopsora pachyrhizi. In words: Phakopsora pachyrhizi / soybean / leaf disk preventative (soybean rust). It counts as in vivo. The settings on record: foliar, soybean leaf disks, compared to untreated control leaf disks, read-out: disease control. The essentials:
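Four-week-old soybean plants sprayed with formulated compound in water; leaf disks cut 1 day later, inoculated on the lower surface with spore suspension. Held 24-36 h dark at 20° C, 75% rh, then 20° C with 12 h light/day; % diseased disk area scored 12-14 days after application.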

The subject of series [2] is Puccinia recondita f. sp. tritici. In words: Puccinia recondita f. sp. tritici / wheat / leaf disc preventative (brown rust). The series is classed as in vivo. Conditions: foliar, wheat leaf segments cv. Kanzler, compared to untreated control leaf disks, read-out: disease control. The essentials: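 Wheat leaf segments (cv. Kanzler) on agar were sprayed preventatively with formulated compound diluted in water and inoculated with spores 1 day later. They were incubated at 19 °C, 75% rh, 12 h light/12 h dark. Percent disease control versus untreated was scored 7-9 days after application.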

For series [3] the test system is unchanged. Kind of series: Puccinia recondita f. sp. tritici / wheat / leaf disc curative (brown rust). The settings on record: foliar, 24 h, wheat leaf segments cv. Kanzler, curative (applied 1 day after inoculation), compared to untreated control leaf disks, read-out: disease control. It counts as in vivo. How it is done:
Puccinia recondita f. sp. tritici/Wheat/Leaf Disc Curative (Brown Rust) Wheat leaf segments cv. Kanzler are placed on agar in multiwell plates (24-well format). The leaf segments are inoculated with a spore suspension of the fungus. Plates were stored in darkness at 19° C. and 75% rh. The formulated test compound diluted in water was applied 1 day after inoculation.

SMILES strings stand for the structures.

Drawing on patent publication US10723695B2, “Microbiocidal phenylamidine derivatives” (SYNGENTA PARTICIPATIONS AG, priority 2015, dated 2020), this text covers pest or weed control and melting point for 5 molecules.

Turning to `COc1cc(/N=C/N(C)C(C)C)c(C)cc1C(O)(C(C)C)C(F)(F)F` (stereo not shown) [Compound E1.067], the melting point lay in the range of 78 to 79 °C. The pest or weed control at 200 ppm in series [1] was ≥ 80%. In the series with Phakopsora pachyrhizi, the pest or weed control at 200 ppm was ≥ 80%. Moreover, the pest or weed control at 200 ppm in series [2] was ≥ 80%. Besides, in series [3], the pest or weed control at 200 ppm is ≥ 80%.
`C=C(C)C(O)(c1cc(C)c(/N=C/N(C)C(C)C)cc1OC)C(F)(F)F` (stereo not shown) [Compound E1.081] yielded a melting point of 110 to 113 °C. Also, the pest or weed control at 200 ppm in series [1] was ≥ 80%. In the series with Phakopsora pachyrhizi, the pest or weed control at 200 ppm was ≥ 80%. The pest or weed control at 200 ppm in series [2] is ≥ 80%. Besides, the pest or weed control at 200 ppm in series [3] was ≥ 80%.
On to `CCN(C)/C=N/c1cc(OC)c(C(O)(c2ccc(F)cc2)C(F)(F)F)cc1C` (stereo not shown) [Compound E1.004], for which the melting point fell in the range of 102 to 104 °C. In addition, the pest or weed control at 200 ppm in series [1] was ≥ 80%. Besides, the pest or weed control at 200 ppm in the series on Phakopsora pachyrhizi is ≥ 80%. In series [2], the pest or weed control at 200 ppm is ≥ 80%. The pest or weed control at 200 ppm in series [3] was ≥ 80%.
Molecule `COc1cc(/N=C/N(C)C(C)C)c(C)cc1[C@](O)(c1ccccc1)C(F)(F)F` [Compound E1.027] displayed a melting point of 110.5 to 111.7 °C. The pest or weed control at 200 ppm in series [1] is ≥ 80%. The pest or weed control at 200 ppm in the series on Phakopsora pachyrhizi was ≥ 80%. The pest or weed control at 200 ppm in series [2] is ≥ 80%. The pest or weed control at 200 ppm in series [3] is ≥ 80%.
In turn, `CCN(C)/C=N/c1cc(OC)c(C(O)(c2ccccc2)C(F)(F)F)cc1C` (stereo not shown) [Compound E1.006] returned a melting point of 160 to 162 °C. Moreover, in series [1], the pest or weed control at 200 ppm is ≥ 80%. In the series on Phakopsora pachyrhizi, the pest or weed control at 200 ppm is ≥ 80%. In series [2], the pest or weed control at 200 ppm is ≥ 80%. Moreover, the pest or weed control at 200 ppm in series [3] is ≥ 80%.
